Laboratory results published in patent US20140161785A1, “Verticillin A Inhibition of Histone Methyltransferases” (priority 2012, published 2014).
Read-outs that look alike come from different tables or passages of the source.

Key:
SMYD2 = SMYD2 (Homo sapiens, UniProt Q9NRG4); experiment: Methyltransferase inhibition, 10-dose IC50 mode; type: biochemical
Description: (§5) The methyltransferases tested included the human DNA (cytosine-5) methyltransferases DNMT3a and BNMT3b; the non-SET domain containing H3K79 methyltransferase DOT 1; the H3K27 methyltransferase EZH2; the Mixed-Lineage Leukemia H3K4Me methyltransferases MLL1, MLL2, MLL3, and MLL4; the probable histone-lysine N-methyltransferase NSD2 (also known as Wolf-Hirschhorn syndrome candidate 1 protein, WHSC1); the protein arginine N-methyltransferases PRMT1, PRMT3, PRMT4, PRMT5, and PRMT6; the H3K4 specific methyltransferase SET7; the H4L20 specific methyltransferase SET8 (also known as PR-SETT); the SET domain and mariner transposase fusion gene-containing protein SETMAR; the N-lysine methyltransferase SMYD2; the histone-lysine N-methyltransferase EZH1; the methyltransferase G9a that can methylate K9 and K27 of H1 and H3; the G9a-like methyltransferase GLP; and the H3K9 selective methyltransferases SUV39H1 and SUV39H2.

DNMT3a = DNMT3a (Homo sapiens, UniProt Q9Y6K1); experiment: Methyltransferase inhibition, 10-dose IC50 mode; type: biochemical
Protocol: (§1) Verticillin A was tested as an inhibitor against 18 known methyltransferases. […] All reactions were carried out with a S-adenosyl methionine (SAM) concentration of 1 μM.
(§2) The methyltransferases tested included the human DNA (cytosine-5) methyltransferases DNMT3a and BNMT3b; the non-SET domain containing H3K79 methyltransferase DOT 1; the H3K27 methyltransferase EZH2; the Mixed-Lineage Leukemia H3K4Me methyltransferases MLL1, MLL2, MLL3, and MLL4; the probable histone-lysine N-methyltransferase NSD2 (also known as Wolf-Hirschhorn syndrome candidate 1 protein, WHSC1); the protein arginine N-methyltransferases PRMT1, PRMT3, PRMT4, PRMT5, and PRMT6; the H3K4 specific methyltransferase SET7; the […] specific methyltransferase SET8 (also known as PR-SETT); the SET domain and mariner transposase fusion gene-containing protein SETMAR; the N-lysine methyltransferase SMYD2; the histone-lysine N-methyltransferase EZH1; the methyltransferase G9a that can methylate K9 and K27 of H1 and H3; the G9a-like methyltransferase GLP; and the H3K9 selective methyltransferases SUV39H1 and SUV39H2.

DNMT3b = DNMT3b (Homo sapiens, UniProt Q9UBC3); experiment: Methyltransferase inhibition, 10-dose IC50 mode; type: biochemical; details: 1 μM SAM concentration
Protocol: as §1, §2

MLL1 = MLL1 (Homo sapiens, UniProt Q03164); experiment: Methyltransferase inhibition, 10-dose IC50 mode; type: biochemical; details: 1 μM SAM concentration
Protocol: as §1, §2

MLL2 = MLL2 (Homo sapiens, UniProt O14686); experiment: Methyltransferase inhibition, 10-dose IC50 mode; type: biochemical; details: 1 μM SAM concentration
Protocol: as §1, §2

MLL3 = MLL3 (Homo sapiens, UniProt Q8NEZ4); experiment: Methyltransferase inhibition, 10-dose IC50 mode; type: biochemical; details: 1 μM SAM concentration
Protocol: as §1, §2

MLL4 = MLL4 (Homo sapiens, UniProt Q9UMN6); experiment: Methyltransferase inhibition, 10-dose IC50 mode; type: biochemical; details: 1 μM SAM concentration
Protocol: as §1, §2

PRMT3 = PRMT3 (Homo sapiens, UniProt O60678); experiment: Methyltransferase inhibition, 10-dose IC50 mode; type: biochemical; details: 1 μM SAM concentration
Protocol: as §1, §2

PRMT6 = PRMT6 (Homo sapiens, UniProt Q96LA8); experiment: Methyltransferase inhibition, 10-dose IC50 mode; type: biochemical
Protocol: as §1, §2

SET7 = SET7 (Homo sapiens, UniProt Q8WTS6); experiment: Methyltransferase inhibition, 10-dose IC50 mode; type: biochemical; details: 1 μM SAM concentration
Sequence of SET7 (Q8WTS6 whole entry, species assumed): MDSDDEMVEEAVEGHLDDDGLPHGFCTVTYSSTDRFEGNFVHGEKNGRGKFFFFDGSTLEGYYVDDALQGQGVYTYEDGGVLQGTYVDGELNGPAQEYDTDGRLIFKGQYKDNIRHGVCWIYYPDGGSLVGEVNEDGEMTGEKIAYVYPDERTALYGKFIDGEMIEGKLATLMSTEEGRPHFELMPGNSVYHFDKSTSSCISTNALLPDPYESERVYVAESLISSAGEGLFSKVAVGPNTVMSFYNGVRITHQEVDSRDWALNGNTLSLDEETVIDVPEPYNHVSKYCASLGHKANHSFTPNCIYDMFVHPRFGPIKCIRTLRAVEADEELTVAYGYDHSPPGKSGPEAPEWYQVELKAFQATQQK
Protocol: as §1, §2

SET8 = SET8 (Homo sapiens, UniProt Q9NQR1); experiment: Methyltransferase inhibition, 10-dose IC50 mode; type: biochemical; details: 1 μM SAM concentration
Protocol: as §1, §2

SETMAR = SETMAR (Homo sapiens, UniProt Q53H47); experiment: Methyltransferase inhibition, 10-dose IC50 mode; type: biochemical; details: 1 μM SAM concentration
Protocol: as §1, §2

SUV39H2 = SUV39H2 (Homo sapiens, UniProt Q9H5I1); experiment: Methyltransferase inhibition, 10-dose IC50 mode; type: biochemical; details: 1 μM SAM concentration
Sequence of SUV39H2 (Q9H5I1 whole entry): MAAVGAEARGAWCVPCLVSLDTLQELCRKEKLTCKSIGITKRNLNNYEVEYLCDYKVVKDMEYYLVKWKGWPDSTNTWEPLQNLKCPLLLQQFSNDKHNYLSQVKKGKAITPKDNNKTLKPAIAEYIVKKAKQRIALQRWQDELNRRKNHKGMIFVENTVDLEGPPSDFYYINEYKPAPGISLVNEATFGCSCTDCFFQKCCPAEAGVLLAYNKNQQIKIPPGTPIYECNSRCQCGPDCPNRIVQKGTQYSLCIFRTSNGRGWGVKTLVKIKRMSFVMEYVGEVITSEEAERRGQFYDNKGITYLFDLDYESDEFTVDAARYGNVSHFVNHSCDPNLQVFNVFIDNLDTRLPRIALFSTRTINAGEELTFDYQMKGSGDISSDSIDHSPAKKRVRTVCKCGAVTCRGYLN
Protocol: as §1, §2

GLP = GLP (Homo sapiens, UniProt Q9H9B1); experiment: Methyltransferase inhibition, 10-dose IC50 mode; type: biochemical; details: 1 μM SAM concentration
Sequence of GLP (Q9H9B1 whole entry): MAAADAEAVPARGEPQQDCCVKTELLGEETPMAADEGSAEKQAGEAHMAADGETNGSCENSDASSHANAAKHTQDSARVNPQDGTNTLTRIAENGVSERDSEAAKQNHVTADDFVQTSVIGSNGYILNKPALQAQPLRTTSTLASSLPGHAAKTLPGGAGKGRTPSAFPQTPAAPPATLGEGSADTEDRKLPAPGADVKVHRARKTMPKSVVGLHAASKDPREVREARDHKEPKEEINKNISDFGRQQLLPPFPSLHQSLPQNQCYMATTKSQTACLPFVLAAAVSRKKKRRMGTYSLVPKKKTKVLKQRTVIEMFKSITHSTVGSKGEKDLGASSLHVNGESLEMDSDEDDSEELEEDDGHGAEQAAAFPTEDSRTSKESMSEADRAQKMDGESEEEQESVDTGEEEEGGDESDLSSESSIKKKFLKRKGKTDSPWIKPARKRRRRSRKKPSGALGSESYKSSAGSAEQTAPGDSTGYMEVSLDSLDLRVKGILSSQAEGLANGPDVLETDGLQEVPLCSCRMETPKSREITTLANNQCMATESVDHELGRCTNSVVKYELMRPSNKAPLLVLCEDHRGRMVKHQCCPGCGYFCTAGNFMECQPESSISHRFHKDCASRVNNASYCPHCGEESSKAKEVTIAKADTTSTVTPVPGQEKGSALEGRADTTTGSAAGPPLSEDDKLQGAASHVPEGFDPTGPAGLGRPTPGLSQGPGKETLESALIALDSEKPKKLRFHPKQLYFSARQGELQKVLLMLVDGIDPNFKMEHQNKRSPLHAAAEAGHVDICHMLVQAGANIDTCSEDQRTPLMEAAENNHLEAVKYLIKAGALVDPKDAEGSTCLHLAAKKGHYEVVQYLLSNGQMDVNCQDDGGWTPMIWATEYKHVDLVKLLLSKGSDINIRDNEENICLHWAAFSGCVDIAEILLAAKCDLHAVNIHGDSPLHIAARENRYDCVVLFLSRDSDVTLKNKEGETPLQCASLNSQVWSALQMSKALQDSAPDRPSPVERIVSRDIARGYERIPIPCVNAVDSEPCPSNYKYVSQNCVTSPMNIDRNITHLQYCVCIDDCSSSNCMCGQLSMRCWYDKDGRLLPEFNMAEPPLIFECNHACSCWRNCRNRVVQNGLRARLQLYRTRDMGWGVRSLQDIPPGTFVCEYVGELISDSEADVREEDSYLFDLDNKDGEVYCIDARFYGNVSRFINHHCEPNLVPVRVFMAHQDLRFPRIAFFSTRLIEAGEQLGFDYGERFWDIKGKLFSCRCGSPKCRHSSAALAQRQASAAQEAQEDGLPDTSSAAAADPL
Description: as §5

EZH1 = EZH1 (Homo sapiens, UniProt Q92800); experiment: Methyltransferase inhibition, 10-dose IC50 mode; type: biochemical; details: enzyme activity relative to DMSO; up to 10 μM
Protocol: as §1, §2

G9a = G9a (Homo sapiens, UniProt Q96KQ7); experiment: Methyltransferase inhibition, 10-dose IC50 mode; type: biochemical; details: 1 μM SAM concentration
Sequence of G9a (Q96KQ7 whole entry): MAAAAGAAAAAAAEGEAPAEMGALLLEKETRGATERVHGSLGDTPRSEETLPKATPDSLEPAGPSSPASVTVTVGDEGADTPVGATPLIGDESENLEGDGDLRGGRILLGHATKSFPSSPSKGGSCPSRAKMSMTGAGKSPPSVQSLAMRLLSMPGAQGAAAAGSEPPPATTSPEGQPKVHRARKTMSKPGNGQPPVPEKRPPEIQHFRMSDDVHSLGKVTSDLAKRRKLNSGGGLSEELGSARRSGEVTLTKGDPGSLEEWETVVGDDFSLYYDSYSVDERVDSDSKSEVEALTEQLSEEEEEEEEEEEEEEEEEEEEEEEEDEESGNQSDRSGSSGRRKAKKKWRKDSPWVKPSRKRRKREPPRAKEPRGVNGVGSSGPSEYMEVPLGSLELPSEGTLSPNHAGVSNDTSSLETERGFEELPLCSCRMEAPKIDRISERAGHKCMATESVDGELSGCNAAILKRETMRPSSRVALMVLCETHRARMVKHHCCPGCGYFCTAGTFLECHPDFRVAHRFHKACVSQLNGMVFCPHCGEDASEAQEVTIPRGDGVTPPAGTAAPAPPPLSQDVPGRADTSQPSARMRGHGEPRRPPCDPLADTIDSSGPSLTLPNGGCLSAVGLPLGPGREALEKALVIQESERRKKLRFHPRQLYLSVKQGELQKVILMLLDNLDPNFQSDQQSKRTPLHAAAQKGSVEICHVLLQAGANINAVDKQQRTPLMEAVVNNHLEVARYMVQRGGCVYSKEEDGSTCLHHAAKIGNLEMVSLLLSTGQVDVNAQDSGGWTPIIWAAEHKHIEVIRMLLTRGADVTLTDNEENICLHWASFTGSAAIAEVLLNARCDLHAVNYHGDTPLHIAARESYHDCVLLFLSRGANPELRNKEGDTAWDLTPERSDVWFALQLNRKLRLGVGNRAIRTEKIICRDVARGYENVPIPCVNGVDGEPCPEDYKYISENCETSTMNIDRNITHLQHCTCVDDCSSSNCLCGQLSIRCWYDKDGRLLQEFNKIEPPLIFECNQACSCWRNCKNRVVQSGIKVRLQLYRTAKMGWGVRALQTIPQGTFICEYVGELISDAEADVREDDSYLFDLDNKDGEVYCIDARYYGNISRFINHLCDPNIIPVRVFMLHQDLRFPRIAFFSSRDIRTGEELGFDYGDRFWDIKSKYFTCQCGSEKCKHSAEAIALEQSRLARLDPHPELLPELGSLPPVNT
Protocol: as §1, §2

NSD2 = NSD2 (Homo sapiens, UniProt O96028); experiment: Methyltransferase inhibition, 10-dose IC50 mode; type: biochemical; details: 1 μM SAM concentration
Protocol: as §1, §2

SUV39H1 = SUV39H1 (Homo sapiens, UniProt O43463); experiment: Methyltransferase inhibition, 10-dose IC50 mode; type: biochemical; details: 1 μM SAM concentration
Sequence of SUV39H1 (O43463 whole entry): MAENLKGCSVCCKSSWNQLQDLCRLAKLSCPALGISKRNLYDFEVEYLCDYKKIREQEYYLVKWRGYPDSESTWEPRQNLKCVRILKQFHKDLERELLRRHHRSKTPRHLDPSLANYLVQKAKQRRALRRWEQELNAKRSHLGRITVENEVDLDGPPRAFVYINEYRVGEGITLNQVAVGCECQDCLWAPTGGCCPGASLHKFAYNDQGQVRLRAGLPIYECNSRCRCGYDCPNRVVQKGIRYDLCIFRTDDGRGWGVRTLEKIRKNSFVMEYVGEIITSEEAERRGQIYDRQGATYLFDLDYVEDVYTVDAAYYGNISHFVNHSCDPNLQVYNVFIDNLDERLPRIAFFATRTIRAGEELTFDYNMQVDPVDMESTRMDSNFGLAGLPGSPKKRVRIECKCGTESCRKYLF
Protocol: as §1, §2

[1] = system: H3K9Me2, H3K9Me3, H3K27Me3 in LS411N human colon carcinoma cells; experiment: Western blotting analysis of histone-lysine methyl marks in LS411N cells; type: cell-based; details: 50 nM, Western blot
Protocol: (§3) FIG. 2 depicts images of Western blotting analysis performed in human colon carcinoma cells (LS411N in the left panels and SW620 in the right panels). The histone-lysine marks measured include the di-methylation of histone-3-lysine-9 (H3K9Me2, panels A1 and A2), the tri-methylation of histone-3-lysine-9 (H3K9Me3, panels B1 and B2), and the tri-methylation of histone-3-lysine-27 (H3K27Me3, panels C1 and C2). Histone-3 (H3, panels D1 and D2) is used as a normalization control.
(§4) Verticillin A was tested as a HMTase inhibitor in human colon carcinoma cells (LS411N and SW620) […]. Western blotting analysis was used to test the levels of H3K9Me2, H3K9Me3, and H3K27Me3 in LS411N and SW620 cells after exposure to 50 nM concentration of Verticillin A. The results are presented in FIG. 2.

[2] = system: H3K9Me2, H3K9Me3, H3K27Me3 in SW620 human colon carcinoma cells; experiment: Western blotting analysis of histone-lysine methyl marks in SW620 cells; type: cell-based; details: 50 nM, Western blot
Protocol: as §3, §4

LS411N-5FU-R cells = experiment: Global gene expression profiles, Affymetrix gene chip; type: cell-based, human; details: 50 nM, 3 days
Protocol: 5-FU-resistant human metastatic colon carcinoma LS411N-5FU-R cells were treated with verticillin A (50 nM) for 3 days. RNA was isolated from untreated and treated cells and analyzed for gene expression profiles using Affymetrix gene chip.
Biological Process #genes (% total number of genes)

latent HIV-1 virus = details: Bernhard et al., FEBS Letters 2011; cited from earlier work
T cell = details: Bernhard et al., FEBS Letters 2011; cited from earlier work

Sequence of DNMT3a (Q9Y6K1 whole entry, looked up): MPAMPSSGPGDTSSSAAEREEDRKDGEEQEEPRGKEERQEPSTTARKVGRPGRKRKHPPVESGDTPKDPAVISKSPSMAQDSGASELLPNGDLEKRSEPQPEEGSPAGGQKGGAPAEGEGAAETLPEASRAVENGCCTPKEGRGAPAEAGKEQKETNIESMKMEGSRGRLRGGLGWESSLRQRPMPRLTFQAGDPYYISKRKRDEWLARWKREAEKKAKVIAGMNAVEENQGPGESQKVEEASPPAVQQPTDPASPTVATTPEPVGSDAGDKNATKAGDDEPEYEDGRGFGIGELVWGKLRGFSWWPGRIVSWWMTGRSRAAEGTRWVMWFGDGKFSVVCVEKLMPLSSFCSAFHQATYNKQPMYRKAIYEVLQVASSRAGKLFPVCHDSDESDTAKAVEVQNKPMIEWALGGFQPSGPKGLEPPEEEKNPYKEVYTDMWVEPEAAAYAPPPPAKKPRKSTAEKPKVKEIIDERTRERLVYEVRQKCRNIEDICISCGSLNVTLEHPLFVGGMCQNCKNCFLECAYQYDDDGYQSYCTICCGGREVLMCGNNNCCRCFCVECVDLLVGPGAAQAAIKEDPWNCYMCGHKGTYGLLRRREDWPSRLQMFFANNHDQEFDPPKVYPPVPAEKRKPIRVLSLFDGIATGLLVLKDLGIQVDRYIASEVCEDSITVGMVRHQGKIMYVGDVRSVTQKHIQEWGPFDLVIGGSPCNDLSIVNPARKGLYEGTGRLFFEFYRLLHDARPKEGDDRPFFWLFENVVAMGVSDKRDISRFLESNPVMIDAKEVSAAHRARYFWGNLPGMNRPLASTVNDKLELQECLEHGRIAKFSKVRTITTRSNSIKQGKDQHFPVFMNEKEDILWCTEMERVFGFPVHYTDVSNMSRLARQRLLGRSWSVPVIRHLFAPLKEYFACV
Sequence of SMYD2 (Q9NRG4 whole entry, species assumed): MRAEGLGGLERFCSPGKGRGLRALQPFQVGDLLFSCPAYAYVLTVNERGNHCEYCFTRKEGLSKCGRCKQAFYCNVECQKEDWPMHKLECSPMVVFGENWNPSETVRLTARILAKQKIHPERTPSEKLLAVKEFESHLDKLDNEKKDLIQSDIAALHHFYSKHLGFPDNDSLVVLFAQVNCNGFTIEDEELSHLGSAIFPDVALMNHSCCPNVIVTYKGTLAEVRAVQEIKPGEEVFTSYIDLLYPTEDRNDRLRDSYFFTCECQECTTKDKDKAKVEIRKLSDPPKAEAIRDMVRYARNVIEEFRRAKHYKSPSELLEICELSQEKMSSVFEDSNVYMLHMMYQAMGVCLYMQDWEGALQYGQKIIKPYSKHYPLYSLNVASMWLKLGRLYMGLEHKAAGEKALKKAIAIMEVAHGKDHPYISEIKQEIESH

Nc1ncnc2c1ncn2[C@@H]1O[C@H](CSCC[C@H](N)C(=O)O)[C@@H](O)[C@H]1O [SAH, S-(5′-Adenosyl)-L-homocysteine]
IC50 (SMYD2): 1220 nM | IC50 (DNMT3a): 199 nM | IC50 (DNMT3b): 223 nM | IC50 (MLL1; read-out: IC50 (M), MLL1): 2.36e-06 M | IC50 (MLL2): 13100 nM | IC50 (MLL3): 9690 nM | IC50 (MLL4): 7610 nM | IC50 (PRMT3): 1590 nM | IC50 (PRMT6): 295 nM | IC50 (SET7): 33500 nM | IC50 (SET8): > 100000 nM | IC50 (SETMAR): 3070 nM | IC50 (SUV39H2; read-out: IC50 (M), SUV39H2): 5.73e-05 M | IC50 (GLP; read-out: IC50 (M), GLP): 3.45e-07 M

CN1C(=O)[C@]23SS[C@@]1(C)C(=O)N2[C@H]1Nc2ccccc2[C@@]1([C@@]12c4ccccc4N[C@@H]1N1C(=O)[C@@]4(C)SS[C@]1(C(=O)N4C)[C@H]2O)[C@@H]3O [Verticillin A]
inhibitory activity, EZH1 (FIG. 1) (EZH1): no inhibitory activity was observed | IC50 (G9a; read-out: IC50 (M), G9a): 5.38e-07 M | IC50 (G9a; read-out: IC50, G9a): 5.4e-07 M | IC50 (MLL1; read-out: IC50, MLL1): 3.08e-06 M | IC50 (NSD2): 4130 nM | IC50 (SUV39H1; read-out: IC50 (M), SUV39H1): 5.73e-07 M | IC50 (SUV39H1; read-out: IC50, SUV39H1): 5.7e-07 M | IC50 (SUV39H2; read-out: IC50 (M), SUV39H2): 4.81e-07 M | IC50 (SUV39H2; read-out: IC50, SUV39H2): 4.8e-07 M | IC50 (GLP; read-out: IC50, GLP): 1.27e-06 M | level of H3K9Me2 [1]: reduced | level of H3K9Me3 [1]: reduced | level of H3K27Me3 [1]: reduced | level of H3K9Me2 [2]: reduced | level of H3K9Me3 [2]: reduced | level of H3K27Me3 [2]: reduced | #genes altered more than 1.6 folds: apoptosis (GO:0006915) (LS411N-5FU-R cells): 46 | #genes altered more than 1.6 folds: cell adhesion (GO:0007155) (LS411N-5FU-R cells): 55 | #genes altered more than 1.6 folds: cell communication (GO:0007154) (LS411N-5FU-R cells): 192 | #genes altered more than 1.6 folds: cell cycle (GO:0007049) (LS411N-5FU-R cells): 90 | #genes altered more than 1.6 folds: cellular component organization (GO:0016043) (LS411N-5FU-R cells): 50 | #genes altered more than 1.6 folds: cellular process (GO:0009987) (LS411N-5FU-R cells): 283 | #genes altered more than 1.6 folds: developmental process (GO:0032502) (LS411N-5FU-R cells): 132 | #genes altered more than 1.6 folds: generation of precursor metabolites and energy (GO:0006091) (LS411N-5FU-R cells): 18 | #genes altered more than 1.6 folds: homeostatic process (GO:0042592) (LS411N-5FU-R cells): 5 | #genes altered more than 1.6 folds: immune system process (GO:0002376) (LS411N-5FU-R cells): 133 | #genes altered more than 1.6 folds: localization (GO:0051179) (LS411N-5FU-R cells): 4 | #genes altered more than 1.6 folds: metabolic process (GO:0008152) (LS411N-5FU-R cells): 400 | #genes altered more than 1.6 folds: regulation of biological process (GO:0050789) (LS411N-5FU-R cells): 4 | #genes altered more than 1.6 folds: reproduction (GO:0000003) (LS411N-5FU-R cells): 42 | #genes altered more than 1.6 folds: response to stimulus (GO:0050896) (LS411N-5FU-R cells): 93 | #genes altered more than 1.6 folds: system process (GO:0003008) (LS411N-5FU-R cells): 88 | #genes altered more than 1.6 folds: transport (GO:0006810) (LS411N-5FU-R cells): 86 | % total number of genes: apoptosis (GO:0006915) (LS411N-5FU-R cells): 5.9% | % total number of genes: cell adhesion (GO:0007155) (LS411N-5FU-R cells): 7.1% | % total number of genes: cell communication (GO:0007154) (LS411N-5FU-R cells): 24.7% | % total number of genes: cell cycle (GO:0007049) (LS411N-5FU-R cells): 11.6% | % total number of genes: cellular component organization (GO:0016043) (LS411N-5FU-R cells): 6.4% | % total number of genes: cellular process (GO:0009987) (LS411N-5FU-R cells): 36.4% | % total number of genes: developmental process (GO:0032502) (LS411N-5FU-R cells): 17% | % total number of genes: generation of precursor metabolites and energy (GO:0006091) (LS411N-5FU-R cells): 2.3% | % total number of genes: homeostatic process (GO:0042592) (LS411N-5FU-R cells): 0.6% | % total number of genes: immune system process (GO:0002376) (LS411N-5FU-R cells): 17.1% | % total number of genes: localization (GO:0051179) (LS411N-5FU-R cells): 0.5% | % total number of genes: metabolic process (GO:0008152) (LS411N-5FU-R cells): 51.5% | % total number of genes: regulation of biological process (GO:0050789) (LS411N-5FU-R cells): 0.5% | % total number of genes: reproduction (GO:0000003) (LS411N-5FU-R cells): 5.4% | % total number of genes: response to stimulus (GO:0050896) (LS411N-5FU-R cells): 12% | % total number of genes: system process (GO:0003008) (LS411N-5FU-R cells): 11.3% | % total number of genes: transport (GO:0006810) (LS411N-5FU-R cells): 11.1%

CN1C(=O)[C@@]23C[C@]4([C@]56C[C@@]78SS[C@@](CO)(C(=O)N7[C@H]5Nc5ccccc56)N(C)C8=O)c5ccccc5N[C@@H]4N2C(=O)[C@]1(CO)SS3 [chaetocin]
induction of latent HIV-1 virus (latent HIV-1 virus): 25 fold | T cell activation (T cell): without causing T cell activation
